Test results published in ChEMBL document CHEMBL5223089, “Cyclosporin Structure and Permeability: From A to Z and Beyond” (J Med Chem, 2021).

Columns and labels:
[1] = species on record: Homo sapiens; assay: Binding affinity to mCherry labelled that cyclophilin (unknown origin) relative to control
[2] = species on record: Homo sapiens; assay: Binding affinity to mCherry labelled that cyclophilin (unknown origin) assessed as fold change
[3] = Permeability of compound by PAMP assay; type: ADME; settings: not told; read-out: permeability

Papp [3] [×10⁻⁶ cm/s] | SMILES | Activity [1] [%] | fold change (FC) [2]
 | C/C=C/C[C@@H](C)[C@@H](O)[C@H]1C(=O)N[C@@H](CC)C(=O)N(C)CC(=O)N(C)[C@@H](C(C)C)C(=O)N[C@@H](C(C)C)C(=O)N(C)[C@@H](CC(C)C)C(=O)N[C@@H](C)C(=O)N[C@H](C)C(=O)N(C)[C@@H](CC(C)C)C(=O)N(C)[C@@H](CC(C)C)C(=O)N(C)[C@@H](C(C)C)C(=O)N1C | 126 | 2
0.42 | C/C=C/C[C@@H](C)[C@@H](O)[C@H]1C(=O)N[C@@H](CC)C(=O)N(C)CC(=O)N(C)[C@@H](CC(C)C)C(=O)N[C@@H](C(C)C)C(=O)N(C)[C@@H](CC(C)C)C(=O)N[C@@H](C)C(=O)N[C@H](C)C(=O)N(C)[C@@H](CC(C)C)C(=O)N(C)[C@@H](CC(C)C)C(=O)N[C@@H](C(C)C)C(=O)N1C |  | 
2.5 | C/C=C/C[C@@H](C)[C@@H](O)[C@H]1C(=O)N[C@@H](CC)C(=O)N(C)CC(=O)N[C@@H](CC(C)C)C(=O)N[C@@H](C(C)C)C(=O)N(C)[C@@H](CC(C)C)C(=O)N[C@@H](C)C(=O)N[C@H](C)C(=O)N(C)[C@@H](CC(C)C)C(=O)N(C)[C@@H](CC(C)C)C(=O)N(C)[C@@H](C(C)C)C(=O)N1C |  | 
4.1 | C/C=C/C[C@@H](C)[C@@H](O)[C@H]1C(=O)N[C@@H](CC)C(=O)N(C)CC(=O)N[C@@H](CC(C)C)C(=O)N[C@@H](C(C)C)C(=O)N[C@@H](CC(C)C)C(=O)N[C@@H](C)C(=O)N[C@H](C)C(=O)N(C)[C@@H](CC(C)C)C(=O)N(C)[C@@H](CC(C)C)C(=O)N(C)[C@@H](C(C)C)C(=O)N1C |  | 
7.9 | C/C=C/C[C@@H](C)[C@@H](O)[C@H]1C(=O)N[C@@H](C)C(=O)N(C)CC(=O)N(C)[C@@H](CC(C)C)C(=O)N[C@@H](C(C)C)C(=O)N(C)[C@@H](CC(C)C)C(=O)N[C@@H](C)C(=O)N[C@H](C)C(=O)N(C)[C@@H](CC(C)C)C(=O)N(C)[C@@H](CC(C)C)C(=O)N(C)[C@@H](C(C)C)C(=O)N1C |  | 
4.4 | C/C=C/C[C@@H](C)[C@@H](O)[C@H]1C(=O)N[C@@H](C(C)C)C(=O)N(C)CC(=O)N(C)[C@@H](CC(C)C)C(=O)N[C@@H](C(C)C)C(=O)N(C)[C@@H](CC(C)C)C(=O)N[C@@H](C)C(=O)N[C@H](C)C(=O)N(C)[C@@H](CC(C)C)C(=O)N(C)[C@@H](CC(C)C)C(=O)N(C)[C@@H](C(C)C)C(=O)N1C |  | 
2.8 | C/C=C/C[C@@H](C)[C@@H](O)[C@H]1C(=O)N[C@@H]([C@@H](C)O)C(=O)N(C)CC(=O)N(C)[C@@H](CC(C)C)C(=O)N[C@@H](C(C)C)C(=O)N(C)[C@@H](CC(C)C)C(=O)N[C@@H](C)C(=O)N[C@H](C)C(=O)N(C)[C@@H](CC(C)C)C(=O)N(C)[C@@H](CC(C)C)C(=O)N(C)[C@@H](C(C)C)C(=O)N1C |  | 
3.3 | C/C=C/C[C@@H](C)[C@@H](OC(C)=O)[C@H]1C(=O)N[C@@H](CC)C(=O)N(C)CC(=O)N(C)[C@@H](CC(C)C)C(=O)N[C@@H](C(C)C)C(=O)N(C)[C@@H](CC(C)C)C(=O)N[C@@H](C)C(=O)N[C@H](C)C(=O)N(C)[C@@H](CC(C)C)C(=O)N(C)[C@@H](CC(C)C)C(=O)N(C)[C@@H](C(C)C)C(=O)N1C |  | 
